Columns and labels:
Assay in all cases: area under growth-rate inhibition curve (AUC GRI) (dimensionless (GR-based AUC)); higher = less growth inhibition
Settings in all cases: exposure time: 72 h; concentrations: 0.1, 1, 10 uM
BT474-LTR = test system: BT474-LTR
Outline: (§1)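 Six breast cancer cell line models (two triple-negative lines, plus parental and lapatinib + trastuzumab-resistant HER2+ lines) were plated at optimised log-phase densities and exposed to compound at 0.1, 1 or 10 µM for 72 h. Cells were fixed in 4% paraformaldehyde, and nuclei were stained with Hoechst 33342 or DAPI, imaged and counted. Area under the growth-rate inhibition curve came from 2 biological replicates, with growth corrected using Day 0 plates, untreated Day 3 plates and DMSO controls.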

BT474-P = test system: BT474-P
Outline: as §1

MDA-MB-231 = test system: MDA-MB-231
Outline: as §1

MDA-MB-468 = test system: MDA-MB-468
Outline: as §1

SKBR3-LTR = test system: SKBR3-LTR
Outline: as §1

SKBR3-P = test system: SKBR3-P
Outline: as §1

Structure (SMILES)	area under growth-rate inhibition curve (BT474-LTR)	area under growth-rate inhibition curve (BT474-P)	area under growth-rate inhibition curve (MDA-MB-231)	area under growth-rate inhibition curve (MDA-MB-468)	area under growth-rate inhibition curve (SKBR3-LTR)	area under growth-rate inhibition curve (SKBR3-P)
COc1cc2nc(N3CCN(C(=O)C4COc5ccccc5O4)CC3)nc(N)c2cc1OC.CS(=O)(=O)O (stereo not given) [Doxazosin Mesylate]	1.07	0.991	0.99	0.966	1.03	0.958
O=C(CCCN1CC=C(n2c(=O)[nH]c3ccccc32)CC1)c1ccc(F)cc1 [Droperidol]	1.04	1.03	1.02	0.992	1.07	1.02
CC12CCC(=O)C=C1C1CC1C1C2CCC2(C)C1C1CC1C21CCC(=O)O1 (stereo not given) [Drospirenone]	1.09	1.04	1.01	1.05	1.05	1.03
CNCC[C@H](Oc1cccc2ccccc12)c1cccs1.[Cl-].[H+] [Duloxetine HCl]	0.98	0.892	1	0.88	1.02	0.964
CC(C)(c1ccc(OCC(O)CO)cc1)c1ccc(OCC(O)CCl)cc1 (stereo not drawn) [EPI-001]	1.07	0.993	1.05	1.01	1.07	1.01
CN1CCCC1Cc1c[nH]c2ccc(CCS(=O)(=O)c3ccccc3)cc12.[Br-].[H+] (stereo not given) [Eletriptan HBr]	1.14	1.03	1.04	1.02	1.03	1.01
COc1ccc(CN(C(=O)C(N)Cc2c(C)cc(C(N)=O)cc2C)C(C)c2ncc(-c3ccccc3)[nH]2)cc1C(=O)O (stereo not given) [Eluxadoline]	1.04	1	1.04	1.04	1.04	1.02
CNC[C@H](O)c1ccc(O)c(O)c1.O=C(O)[C@H](O)[C@@H](O)C(=O)O [Epinephrine Bitartrate]	1.06	1.03	0.946	1.02	1.1	1.01
CNCC(O)c1ccc(O)c(O)c1.[Cl-].[H+] (stereo not given) [Epinephrine HCl]	1.07	1.04	0.965	1	1.03	1.02
CCCCc1ncc(C=C(Cc2cccs2)C(=O)O)n1Cc1ccc(C(=O)O)cc1.CS(=O)(=O)O [Eprosartan mesylate]	1.06	1.02	1.04	1.05	1.06	1.03
Oc1ccc([C@H]2COc3cc(O)ccc3C2)cc1 [Equol]	1.08	1.07	1.02	1.01	1.05	1.05
CN(C)CCC[C@@]1(c2ccc(F)cc2)OCc2cc(C#N)ccc21.O=C(O)C(=O)O [Escitalopram Oxalate]	1.1	1.03	1.02	1.02	1.02	0.985
CCCCC(=O)O[C@H]1CC[C@H]2[C@@H]3CCc4cc(O)ccc4[C@H]3CC[C@]12C [Estradiol valerate]	1.05	1.04	1.01	1.03	1.05	1.02
C[C@]12CC[C@@H]3c4ccc(O)cc4CC[C@H]3[C@@H]1C[C@@H](O)[C@@H]2O [Estriol]	1.01	0.979	0.988	0.987	1.01	0.989
C[C@]12CC[C@@H]3c4ccc(O)cc4CC[C@H]3[C@@H]1CCC2=O [Estrone]	1.08	1.07	1.03	1	1.05	1.02
CCOC(=O)c1cncn1C(C)c1ccccc1 (stereo not given) [Etomidate]	1.09	1.08	1.05	1.03	1.07	0.999
C#C[C@]1(O)CC[C@H]2[C@@H]3CCC4=CC(=O)CC[C@@H]4[C@H]3C(=C)C[C@@]21CC [Etonogestrel]	0.993	0.958	0.976	1.03	1.05	1
CC1=C(C(=O)OC2CCCCC2)C(c2ccc([N+](=O)[O-])cc2)C2=C(CC(C)(C)CC2=O)N1 (stereo not given) [FLI-06]	1.01	0.895	0.878	0.915	0.928	0.915
NC(N)=Nc1nc(CSCCC(N)=NS(N)(=O)=O)cs1 [Famotidine]	1.09	1.02	1.02	1.05	1.08	1.03
NC(=O)OCC(COC(N)=O)c1ccccc1 [Felbamate]	1.02	1.01	1.04	1.03	1.05	1.03
CC(C)C(=O)Oc1ccc(CO)cc1[C@H](CCN(C(C)C)C(C)C)c1ccccc1.O=C(O)/C=C/C(=O)O [Fesoterodine Fumarate]	1	0.994	1.01	1.01	0.961	0.973
CC(C)(C(=O)O)c1ccc(C(O)CCCN2CCC(C(O)(c3ccccc3)c3ccccc3)CC2)cc1.[Cl-].[H+] (stereo not given) [Fexofenadine HCl]	1.01	1.03	1	1.03	1.01	1.03
CCCCCCCCc1ccc(CCC(N)(CO)CO)cc1.Cl [Fingolimod (FTY720) HCl]	0.96	0.836	0.829	0.864	0.814	0.901
CCOC(=O)c1ncn2c1CN(C)C(=O)c1cc(F)ccc1-2 [Flumazenil]	1.06	1.03	1.01	1.02	1.03	0.989
CNCCC(Oc1ccc(C(F)(F)F)cc1)c1ccccc1.[Cl-].[H+] (stereo not given) [Fluoxetine HCl]	1.03	1.02	1	1.03	1	1.02
